Measurements taken from ChEMBL document CHEMBL5143508, “Design, synthesis and biological evaluation of novel o-aminobenzamide derivatives as potential anti-gastric cancer agents in vitro and in vivo” (Eur J Med Chem, 2022).
“And” between values parts separate entries of the source, which are not always exact repeats. Identical values can stand only once. The source made the active and inactive calls. The rule behind the calls is not given here.

Columns and labels:
[1] = tested on: HGC-27; assay: Induction of apoptosis in human HGC-27 cells assessed as late apoptotic cells at 0.1 uM incubated for 48 hrs by annexin V FITC/propidium iodide staining based flow cytometry (reference value: 5.14 %); type: functional
[2] = Toxicity in BALB/c mouse xenografted with human HGC-27 cells assessed as mean platelet volume at 150 mg/kg, po bid for 19 days; type: organism-based; details: in vivo, 456 h, time 19 day
[3] = Toxicity in BALB/c mouse xenografted with human HGC-27 cells assessed as monocyte level at 75 mg/kg, po bid for 19 days; type: organism-based; details: in vivo, 456 h, time 19 day
[4] = tested on: SGC-7901; assay: cells; type: functional, cell-based; details: Homo sapiens, SGC-7901, 72 h
Description: Cytotoxicity against human SGC-7901 cells assessed as inhibition of cell growth incubated for 72 hrs by MTT assay

[5] = tested on: MGC-803; assay: cells; type: functional, cell-based; details: Homo sapiens, MGC-803, 72 h
Description: Cytotoxicity against human MGC-803 cells assessed as inhibition of cell growth incubated for 72 hrs by MTT assay

[6] = tested on: MGC-803; assay: Induction of apoptosis in human MGC-803 cells assessed as late apoptotic cells at 20 uM incubated for 48 hrs by annexin V FITC/propidium iodide staining based flow cytometry (reference value: 4.07 %); type: functional
[7] = tested on: HGC-27; assay: Induction of apoptosis in human HGC-27 cells assessed as viable cells at 0.4 uM incubated for 48 hrs by annexin V FITC/propidium iodide staining based flow cytometry (reference value: 93.0 %); type: functional; details: read-out: Activity
[8] = Acute toxicity in Kunming mouse assessed as effect on spleen pathology at 1000 mg/kg, po measured after 14 days; type: organism-based; details: in vivo, 336 h, time 14 day
[9] = tested on: HGC-27; assay: Induction of cell cycle arrest in human HGC-27 cells assessed as upregulation of p27 expression at 0.1 to 1.6 uM incubated for 48 hrs by Western blot analysis; type: functional, cell-based; details: dose 0.1-1.6 µM
[10] = Acute toxicity in Kunming mouse assessed as effect on lung pathology at 1000 mg/kg, po measured after 14 days; type: organism-based; details: in vivo, 336 h, time 14 day
[11] = tested on: HGC-27; assay: cells; type: functional, cell-based; details: Homo sapiens, HGC-27, 72 h
Description: Cytotoxicity against human HGC-27 cells assessed as inhibition of cell growth incubated for 72 hrs by MTT assay

[12] = Acute toxicity in Kunming mouse assessed as effect on heart pathology at 1000 mg/kg, po measured after 14 days; type: organism-based; details: in vivo, 336 h, time 14 day
[13] = tested on: MGC-803; assay: Induction of cell cycle arrest in human MGC-803 cells assessed as reduction in accumulation of cells at S phase at 5 to 20 uM incubated for 24 hrs by PI staining based flow cytometry analysis; type: functional; details: dose 5-20 µM
[14] = Toxicity in BALB/c mouse xenografted with human HGC-27 cells assessed as red blood cell distribution width at 150 mg/kg, po bid for 19 days; type: organism-based; details: in vivo, 456 h, time 19 day
[15] = Acute toxicity in Kunming mouse assessed as mouse survival at 1000 mg/kg, po measured after 14 days; type: organism-based; details: in vivo, 336 h, time 14 day
[16] = tested on: HGC-27; assay: Induction of apoptosis in human HGC-27 cells assessed as upregulation in cleaved PARP expression at 0.1 to 1.6 uM incubated for 48 hrs by Western blot analysis; type: functional, cell-based; details: dose 0.1-1.6 µM
[17] = tested on: HGC-27; assay: Induction of apoptosis in human HGC-27 cells assessed as necrotic cells at 2 uM incubated for 48 hrs by annexin V FITC/propidium iodide staining based flow cytometry (reference value: 1.24 %); type: functional
[18] = tested on: MGC-803; assay: Induction of cell cycle arrest in human MGC-803 cells assessed as reduction in accumulation of cells at G0/G1 phase at 2.5 to 10 uM incubated for 24 hrs by PI staining based flow cytometry analysis; type: functional; details: dose 2.5-10 µM
[19] = tested on: HGC-27; assay: Induction of apoptosis in human HGC-27 cells assessed as necrotic cells at 8 uM incubated for 48 hrs by annexin V FITC/propidium iodide staining based flow cytometry (reference value: 1.24 %); type: functional
[20] = tested on: HGC-27; assay: Induction of apoptosis in human HGC-27 cells assessed as late apoptotic cells at 8 uM incubated for 48 hrs by annexin V FITC/propidium iodide staining based flow cytometry (reference value: 5.14 %); type: functional

SMILES: O=C(NCc1ccc(NC(=O)c2cc(F)ccc2N2CCCC2)cc1)OCc1cccnc1
- Activity [1]: 14.2%
- Activity [2]: 6.28 fL
- Activity [3]: 1.57 10^9/L and 2.03%
- IC50 [4]: 44.8 µM
- IC50 [5]: 10.7 µM
- Activity [6]: 19.8%
- viability at 0.4 µM [7]: 70.7%
- Activity [8]: Non-Toxic
- Activity [9]: Active
- Activity [10]: Non-Toxic
- IC50 [11]: 0.28 µM
- Activity [12]: Non-Toxic
- Activity [13]: Active
- Activity [14]: 15.33%
- Activity [15]: Non-Toxic
- Activity [16]: Active

SMILES: O=C(NCc1ccc(NC(=O)c2ccccc2N2CCCC2)cc1)OCc1cccnc1
- Activity [17]: 12.1%
- Activity [18]: Active
- Activity [19]: 11.1%
- Activity [20]: 49.1%
